{"source": "patent US20120041065A1", "about": "“LAURIC ACID DISTILLATE FOR ANIMAL FEED” (CAN TECHNOLOGIES, INC., priority 2010, published 2012)", "key": {"[1]": {"test_system": "male broiler chickens (Ross 708)", "conditions": "in vivo"}, "grow-finish pigs": {"test_system": "grow-finish pigs", "test": "Fifth study: growth performance of grow-finish pigs fed HLAD, LA or BMD", "conditions": "P<0.05"}, "[2]": {"test_system": "male broiler chickens (Ross 708)", "test": "First study: growth performance and carcass evaluation in broilers fed HPKFAD or LA"}, "[3]": {"test_system": "pigs (initial BW of 9.98 lbs)", "test": "Fourth study: nursery pig challenge model (dirty room) with LAD, Mecadox, calsporin", "type": "in vivo", "conditions": "severely challenged pigs; d 0 to 40", "procedure": "A total of 96 pigs (initial BW of 9.98 lbs) were allotted to one of 8 treatments (12 replicates per treatment with 1 pigs per replicate). The treatments were 1) a negative control (NC) diet with no antibiotic (Ab), 2) a control diet with an Ab (Mecadox), 3) a diet with LAD at 0.25%, 4) a diet with LAD at 0.5%, 5) a diet with LAD at 1%, 6) a diet with calsporin, 7) a diet with calsporin and LAD at 1%, 8) and a diet with calsporin and LAD at 0.5%. Feed intakes and body weights were determined at the end of each feeding phase. […] Also, ZnO and CuSO4 were not added into the diet to enhance the challenge. The feeding phases were from d 0 to […], d 11 to 20, d 20 to 40. The data, especially from Phase 1 and 2, illustrated the pigs were severely challenged in this trial, which enhanced the effect of the antibiotic. […] The optimum level of LAD was 0.25% for the early growth period and increased to 0.50% for the later growth period. Accordingly, the recommended level of HLAD to be fed to nursery pigs is between 0.25% and 0.5%."}, "[4]": {"test_system": "broilers challenged with coccidian vaccine and Clostridium Perfringens", "type": "in vivo", "conditions": "versus negative control; throughout the study"}, "[5]": {"test_system": "broilers challenged with coccidia and Clostridia perfringens", "type": "in vivo"}, "[6]": {"test_system": "broilers challenged with coccidian vaccine and Clostridium Perfringens", "type": "in vivo", "conditions": "diets that contained papain relative to any other diet; P<0.05"}}}
{"molecule": "CCCCCCCCCCCC(=O)O", "note": "[LA, lauric acid]", "values": [{"measurement": "Removed Animals (Adverse Event), overall proportion of animals removed", "setting": "[1]", "value": "no differences"}, {"measurement": "ADFI, Phase 3", "setting": "grow-finish pigs; LA at 0.1% relative to control diet or HLAD at 0.4%", "value": "decreased"}, {"measurement": "overall ADFI", "setting": "[2]; LA 0.1% versus negative control, P=0.166", "value": "numerically lower but not statistically significant"}, {"measurement": "overall ADG", "setting": "[2]; LA included at 0.2 and 0.4%, P 0.038", "value": "decline in overall ADG"}, {"measurement": "breast and leg yield", "setting": "[2]; LA treatments", "value": "did not so such an increase"}, {"measurement": "overall feed efficiency, dose response", "setting": "[2]; across inclusion levels, P<0.001", "value": "significant linear and plateau responses"}, {"measurement": "overall ADFI", "setting": "[2]; all non-zero LA treatments except 0.1% versus negative control", "value": "decrease"}, {"measurement": "overall ADFI", "setting": "[2]; all non-zero treatments versus negative control, P 0.045", "value": "decrease"}, {"measurement": "overall feed efficiency", "setting": "[2]; included at 0.4 and 0.8% compared to negative control, P>0.016 as printed", "value": "improved"}, {"measurement": "Average Hot Carcass Weight", "setting": "[2]; non-zero treatments versus control, P≧0.111", "value": "no differences"}, {"measurement": "Average Breast Weight", "setting": "[2]; non-zero treatments versus control, P≧0.236", "value": "no treatment differences"}, {"measurement": "Average Leg Weight", "setting": "[2]; non-zero treatments versus control, P≧0.267", "value": "no treatment differences"}, {"measurement": "Percent Leg Yield", "setting": "[2]; other HPKFAD and LA treatment comparisons, P≧0.195", "value": "No other treatment differences"}, {"measurement": "Percent Breast Yield", "setting": "[2]; other HPKFAD and LA treatment comparisons, P≧0.404", "value": "No other treatment differences"}]}
{"molecule": "COC(=O)N/N=C/c1c[n+]([O-])c2ccccc2[n+]1[O-]", "note": "[Mecadox]", "values": [{"measurement": "performance (feed intakes and body weights)", "setting": "[3]", "value": "improved performance"}]}
{"molecule": "bacitracin methylene disalicylate [BMD]", "values": [{"measurement": "performance", "setting": "[4]", "value": "tended to have improved performance"}, {"measurement": "performance", "setting": "[5]; BMD", "value": "only tended to improve performance"}, {"measurement": "feed intake, day 7", "setting": "[5]; BMD relative to any other dietary treatment, P<0.05", "value": "higher"}, {"measurement": "Feed efficiency, Phase 2", "setting": "grow-finish pigs; antibiotic relative to LA at 0.1% or HLAD at 0.4%", "value": "increased"}]}
{"molecule": "papain: protease fed alone and in combination with hydrolyzed lauric acid (protein, UniProt P00784 134-345, looked up) Papain: IPEYVDWRQKGAVTPVKNQGSCGSCWAFSAVVTIEGIIKIRTGNLNEYSEQELLDCDRRSYGCNGGYPWSALQLVAQYGIHYRNTYPYEGVQRYCRSREKGPYAAKTDGVRQVQPYNEGALLYSIANQPVSVVLEAAGKDFQLYRGGIFVGPCGNKVDHAVAAVGYGPNYILIKNSWGTGWGENGYIRIKRGTGNSYGVCGLYTSSFYPVKN", "values": [{"measurement": "ADG", "setting": "[6]", "value": "decreased"}, {"measurement": "Feed intake", "setting": "[6]", "value": "decreased"}]}
